15 compounds from patent US20240238423A9, “TETRAHYDROISOQUINOLINE HETEROBIFUNCTIONAL BCL-XL DEGRADERS” (Treeline Biosciences, Inc., priority 2022, published 2024) can be followed below.

This assay has as its target T1, Human BCL-XL protein (N-terminal HiBiT tagged BCL-XL in HT1080 cells) (Homo sapiens, UniProt Q07817).
T1 construct: expressed in transfected cells; host or cells: HT-1080 (ATCC CCL-121), stably transduced with lentivirus pLV-UBC-N-HiBiT-BCL-XL-PGK-puro and selected with puromycin
Nature of the assay: HiBiT based degradation assay. Format: cell-based. The conditions noted are these: HT1080 cells expressing HiBiT-BCL-XL, 24 h; for Ymin (24 h): BCL-XL degradation normalized with DMSO control; for DC50: BCL-XL degradation, read-out: EC50 (24 h). An outline of the steps:
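This HiBiT degradation assay measured loss of BCL-XL in HT1080 cells that stably express an N-terminal HiBiT-BCL-XL fusion delivered by lentivirus. Cells were added to compound-spotted 384-well plates, and luminescence was read on a PHERAstar FSX reader. Signal was expressed relative to DMSO controls, curves were fitted by four-parameter logistic regression, and for hook-shaped curves the Ymin point served as the bottom plateau when calculating EC50.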

T1 sequence (Q07817 whole entry): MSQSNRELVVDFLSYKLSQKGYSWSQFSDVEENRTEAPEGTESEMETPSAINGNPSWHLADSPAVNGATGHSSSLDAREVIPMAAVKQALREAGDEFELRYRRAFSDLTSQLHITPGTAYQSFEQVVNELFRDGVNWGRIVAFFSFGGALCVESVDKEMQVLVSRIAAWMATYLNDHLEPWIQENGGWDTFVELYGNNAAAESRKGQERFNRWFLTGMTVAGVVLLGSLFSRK

As to `Cc1c(O[C@H]2CC[C@H](CCCCN3CCC(c4cccc5c(C6CCC(=O)NC6=O)nn(C)c45)CC3)CC2)cccc1-c1ccc(N2CCc3cccc(C(=O)Nc4nc5ccccc5s4)c3C2)nc1C(=O)O` (stereo partly drawn) [Compound 298a, 6-(8-(benzo[d]thiazol-2-ylcarbamoyl)-3,4-dihydroisoquinolin-2(1H)-yl)-3-(3-(((1s,4r)-4-(4-(4-(3-(2,6-dioxopiperidin-3-yl)-1-methyl-1H-indazol-7-yl)piperidin-1-yl)butyl)cyclohexyl)oxy)-2-methylphenyl)picolinic acid], the “Ymin (24 h)” value was “A (Ymin < 50%)” and the DC50 is under 0.1 µM.

As to `Cc1c(O[C@H]2CC[C@H](CCCCN3CCC(c4ccc5c(C6CCC(=O)NC6=O)nn(C)c5c4)CC3)CC2)cccc1-c1ccc(N2CCc3cccc(C(=O)Nc4nc5ccccc5s4)c3C2)nc1C(=O)O` (stereo partly drawn) [Compound 299a, 6-(8-(benzo[d]thiazol-2-ylcarbamoyl)-3,4-dihydroisoquinolin-2(1H)-yl)-3-(3-(((1s,4r)-4-(4-(4-(3-(2,6-dioxopiperidin-3-yl)-1-methyl-1H-indazol-6-yl)piperidin-1-yl)butyl)cyclohexyl)oxy)-2-methylphenyl)picolinic acid], the “Ymin (24 h)” value is listed as “A (Ymin < 50%)” and the DC50 was under 0.1 µM.

In the case of `Cc1c(O[C@H]2CC[C@H](CCCCN3CCN(c4ccc5c(C6CCC(=O)NC6=O)nn(C)c5c4)[C@H](C)C3)CC2)cccc1-c1ccc(N2CCc3cccc(C(=O)Nc4nc5ccccc5s4)c3C2)nc1C(=O)O` (stereo partly drawn) [Compound 300a, 6-(8-(benzo[d]thiazol-2-ylcarbamoyl)-3,4-dihydroisoquinolin-2(1H)-yl)-3-(3-(((1s,4r)-4-(4-((3R)-4-(3-(2,6-dioxopiperidin-3-yl)-1-methyl-1H-indazol-6-yl)-3-methylpiperazin-1-yl)butyl)cyclohexyl)oxy)-2-methylphenyl)picolinic acid], the “Ymin (24 h)” value was “A (Ymin < 50%)” and the DC50 was under 0.1 µM.

Turning to `Cc1c(O[C@H]2CC[C@H](CCCCN3CCN(c4ccc5c(C6CCC(=O)NC6=O)nn(C)c5c4)[C@@H](C)C3)CC2)cccc1-c1ccc(N2CCc3cccc(C(=O)Nc4nc5ccccc5s4)c3C2)nc1C(=O)O` (stereo partly drawn) [Compound 300b, 6-(8-(benzo[d]thiazol-2-ylcarbamoyl)-3,4-dihydroisoquinolin-2(1H)-yl)-3-(3-(((1r,4r)-4-(4-((3S)-4-(3-(2,6-dioxopiperidin-3-yl)-1-methyl-1H-indazol-6-yl)-3-methylpiperazin-1-yl)butyl)cyclohexyl)oxy)-2-methylphenyl)picolinic acid], the “Ymin (24 h)” value is reported as “A (Ymin < 50%)” and the DC50 is under 0.1 µM.

Consider `Cc1c(O[C@H]2CC[C@H](CCCN3CCN(c4ccc5c(C6CCC(=O)NC6=O)nn(C)c5c4)[C@@H](C(F)(F)F)C3)CC2)cccc1-c1ccc(N2CCc3cccc(C(=O)Nc4nc5ccccc5s4)c3C2)nc1C(=O)O` (stereo partly drawn) [Compound 301a, 6-(8-(benzo[d]thiazol-2-ylcarbamoyl)-3,4-dihydroisoquinolin-2(1H)-yl)-3-(3-(((1s,4r)-4-(3-((3R)-4-(3-(2,6-dioxopiperidin-3-yl)-1-methyl-1H-indazol-6-yl)-3-(trifluoromethyl)piperazin-1-yl)propyl)cyclohexyl)oxy)-2-methylphenyl)picolinic acid], for which the “Ymin (24 h)” value was “A (Ymin < 50%)” and the DC50 was under 0.1 µM.

`Cc1c(O[C@H]2CC[C@H](CCCN3CCN(c4ccc5c(C6CCC(=O)NC6=O)nn(C)c5c4)[C@H](C(F)(F)F)C3)CC2)cccc1-c1ccc(N2CCc3cccc(C(=O)Nc4nc5ccccc5s4)c3C2)nc1C(=O)O` (stereo partly drawn) [Compound 301b, 6-(8-(benzo[d]thiazol-2-ylcarbamoyl)-3,4-dihydroisoquinolin-2(1H)-yl)-3-(3-(((1r,4r)-4-(3-((3S)-4-(3-(2,6-dioxopiperidin-3-yl)-1-methyl-1H-indazol-6-yl)-3-(trifluoromethyl)piperazin-1-yl)propyl)cyclohexyl)oxy)-2-methylphenyl)picolinic acid]: the “Ymin (24 h)” value is “B (50% ≤ Ymin < 70%)” and the DC50 was under 0.1 µM.

With `Cc1c(OCCCC2CCN(CC(=O)Nc3ccc4c(C5CCC(=O)NC5=O)nn(C)c4c3F)CC2)cccc1-c1ccc(N2CCc3cccc(C(=O)Nc4nc5ccccc5s4)c3C2)nc1C(=O)O` (stereo not drawn) [Compound 302, 6-[8-(1,3-benzothiazol-2-ylcarbamoyl)-3,4-dihydro-1H-isoquinolin-2-yl]-3-[3-[3-[1-[2-[[3-(2,6-dioxo-3-piperidyl)-7-fluoro-1-methyl-indazol-6-yl]amino]-2-oxo-ethyl]-4-piperidyl]propoxy]-2-methyl-phenyl]pyridine-2-carboxylic acid], the “Ymin (24 h)” value was “B (50% ≤ Ymin < 70%)” and the DC50 is under 0.1 µM.

In the case of `Cc1c(OCCCC2CCN(CCc3ccc4c(C5CCC(=O)NC5=O)nn(C)c4c3)CC2)cccc1-c1ccc(N2CCc3cccc(C(=O)Nc4nc5ccccc5s4)c3C2)nc1C(=O)O` (stereo not drawn) [Compound 303, 6-(8-(benzo[d]thiazol-2-ylcarbamoyl)-3,4-dihydroisoquinolin-2(1H)-yl)-3-(3-(3-(1-(2-(3-(2,6-dioxopiperidin-3-yl)-1-methyl-1H-indazol-6-yl)ethyl)piperidin-4-yl)propoxy)-2-methylphenyl)picolinic acid], the “Ymin (24 h)” value is on record as “A (Ymin < 50%)” and the DC50 is under 0.1 µM.

As to `Cc1c(OCCCC2CCN(Cc3ccc4c(C5CCC(=O)NC5=O)nn(C)c4c3)CC2)cccc1-c1ccc(N2CCc3cccc(C(=O)Nc4nc5ccccc5s4)c3C2)nc1C(=O)O` (stereo not drawn) [Compound 304, 6-(8-(benzo[d]thiazol-2-ylcarbamoyl)-3,4-dihydroisoquinolin-2(1H)-yl)-3-(3-(3-(1-((3-(2,6-dioxopiperidin-3-yl)-1-methyl-1H-indazol-6-yl)methyl)piperidin-4-yl)propoxy)-2-methylphenyl)picolinic acid], the “Ymin (24 h)” value is “B (50% ≤ Ymin < 70%)” and the DC50 is under 0.1 µM.

Consider `Cc1c(OCCCC2CCN(CCCc3ccc4c(C5CCC(=O)NC5=O)nn(C)c4c3)CC2)cccc1-c1ccc(N2CCc3cccc(C(=O)Nc4nc5ccccc5s4)c3C2)nc1C(=O)O` (stereo not drawn) [Compound 305, 6-(8-(benzo[d]thiazol-2-ylcarbamoyl)-3,4-dihydroisoquinolin-2(1H)-yl)-3-(3-(3-(1-(3-(3-(2,6-dioxopiperidin-3-yl)-1-methyl-1H-indazol-6-yl)propyl)piperidin-4-yl)propoxy)-2-methylphenyl)picolinic acid], for which the “Ymin (24 h)” value is on record as “A (Ymin < 50%)” and the DC50 was under 0.1 µM.

For `Cc1c(OCCCC2CCN(C3CCN(c4ccc5c(C6CCC(=O)NC6=O)nn(C)c5c4)CC3)CC2)cccc1-c1ccc(N2CCc3cccc(C(=O)Nc4nc5ccccc5s4)c3C2)nc1C(=O)O` (stereo not drawn) [Compound 306, 6-(8-(benzo[d]thiazol-2-ylcarbamoyl)-3,4-dihydroisoquinolin-2(1H)-yl)-3-(3-(3-(1′-(3-(2,6-dioxopiperidin-3-yl)-1-methyl-1H-indazol-6-yl)-[1,4′-bipiperidin]-4-yl)propoxy)-2-methylphenyl)picolinic acid], the “Ymin (24 h)” value is on record as “A (Ymin < 50%)” and the DC50 is under 0.1 µM.

In the case of `Cc1c(OCCCc2ccc(CC(=O)Nc3ccc4c(C5CCC(=O)NC5=O)nn(C)c4c3)cn2)cccc1-c1ccc(N2CCc3cccc(C(=O)Nc4nc5ccccc5s4)c3C2)nc1C(=O)O` (stereo not drawn) [Compound 309, 6-[8-(1,3-benzothiazol-2-ylcarbamoyl)-3,4-dihydro-1H-isoquinolin-2-yl]-3-[3-[3-[5-[2-[[3-(2,6-dioxo-3-piperidyl)-1-methyl-indazol-6-yl]amino]-2-oxo-ethyl]-2-pyridyl]propoxy]-2-methyl-phenyl]pyridine-2-carboxylic acid], the “Ymin (24 h)” value was “B (50% ≤ Ymin < 70%)” and the DC50 was in the range of 0.1 to 1 µM.

Regarding `Cc1c(O[C@H]2CC[C@@H](CCCC3CCN(c4ccc5c(C6CCC(=O)NC6=O)nn(C)c5c4)CC3)CC2)cccc1-c1ccc(N2CCc3cccc(C(=O)Nc4nc5ccccc5s4)c3C2)nc1C(=O)O` (stereo partly drawn) [Compound 311a, 6-(8-(benzo[d]thiazol-2-ylcarbamoyl)-3,4-dihydroisoquinolin-2(1H)-yl)-3-(3-(((1r,4s)-4-(3-(1-(3-(2,6-dioxopiperidin-3-yl)-1-methyl-1H-indazol-6-yl)piperidin-4-yl)propyl)cyclohexyl)oxy)-2-methylphenyl) picolinic acid], the “Ymin (24 h)” value is given as “B (50% ≤ Ymin < 70%)” and the DC50 is under 0.1 µM.

On to `Cc1c(O[C@H]2CC[C@H](CCCC3CCN(c4ccc5c(C6CCC(=O)NC6=O)nn(C)c5c4)CC3)CC2)cccc1-c1ccc(N2CCc3cccc(C(=O)Nc4nc5ccccc5s4)c3C2)nc1C(=O)O` (stereo partly drawn) [Compound 311b, 6-(8-(benzo[d]thiazol-2-ylcarbamoyl)-3,4-dihydroisoquinolin-2(1H)-yl)-3-(3-(((1s,4r)-4-(3-(1-(3-(2,6-dioxopiperidin-3-yl)-1-methyl-1H-indazol-6-yl)piperidin-4-yl)propyl)cyclohexyl)oxy)-2-methylphenyl)picolinic acid], for which the “Ymin (24 h)” value is “B (50% ≤ Ymin < 70%)” and the DC50 is under 0.1 µM.

For the compound `Cc1c(OCCCC2CCN(CC3CN(c4ccc5c(C6CCC(=O)NC6=O)nn(C)c5c4)C3)CC2)cccc1-c1ccc(N2CCc3cccc(C(=O)Nc4nc5ccccc5s4)c3C2)nc1C(=O)O` (stereo not drawn) [Compound 312, 6-(8-(benzo[d]thiazol-2-ylcarbamoyl)-3,4-dihydroisoquinolin-2(1H)-yl)-3-(3-(3-(1-((1-(3-(2,6-dioxopiperidin-3-yl)-1-methyl-1H-indazol-6-yl)azetidin-3-yl)methyl)piperidin-4-yl)propoxy)-2-methylphenyl)picolinic acid], the “Ymin (24 h)” value is on record as “A (Ymin < 50%)” and the DC50 is under 0.1 µM.
